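Protocol summary: plate cells (96-well), add compound at 5 concentrations, incubate 48 h, interpolate endpoints linearly. Definition used: TGI = concentration required for complete inhibition of growth.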
How the values were obtained:
Test in all cases: NCI anticancer screen, dose series, 48 h
[1] = test system: 786-0 renal
[2] = test system: A498 renal
[3] = test system: A549 NSCLC
[4] = test system: ACHN renal
[5] = test system: BT-549 breast
[6] = test system: CAKI-1 renal
[7] = test system: CCRF-CEM leukemia
[8] = test system: COLO 205 colon
[9] = test system: DU-145 prostate
[10] = test system: EKVX NSCLC
[11] = test system: HCT-116 colon
[12] = test system: HCT-15 colon
[13] = test system: HL-60(TB) leukemia
[14] = test system: HOP-62 NSCLC
[15] = test system: HOP-92 NSCLC
[16] = test system: HS 578T breast
[17] = test system: HT29 colon
[18] = test system: IGROV1 ovarian
[19] = test system: K-562 leukemia
[20] = test system: KM12 colon
[21] = test system: LOX IMVI melanoma
[22] = test system: M14 melanoma
[23] = test system: MALME-3M melanoma
[24] = test system: MCF7 breast
[25] = test system: MDA-MB-231 breast
[26] = test system: MDA-MB-435
[27] = test system: MDA-N
[28] = test system: MOLT-4 leukemia
[29] = test system: NCI-H23 lung
[30] = test system: NCI-H522 lung
[31] = test system: NCI/ADR-RES ovarian
[32] = test system: OVCAR-3 ovarian
[33] = test system: OVCAR-4 ovarian
[34] = test system: OVCAR-5 ovarian
[35] = test system: OVCAR-8 ovarian
[36] = test system: PC-3 prostate
[37] = test system: RPMI-8226 leukemia
[38] = test system: RXF 393 renal
[39] = test system: SF-268 CNS
[40] = test system: SF-295 CNS
[41] = test system: SF-539 CNS
[42] = test system: SK-MEL-2 melanoma
[43] = test system: SK-MEL-28 melanoma
[44] = test system: SK-OV-3 ovarian
[45] = test system: SN12C renal
[46] = test system: SNB-19 CNS
[47] = test system: SNB-75 CNS
[48] = test system: SR leukemia
[49] = test system: SW-620 colon
[50] = test system: T-47D breast
[51] = test system: TK-10 renal
[52] = test system: U251 CNS
[53] = test system: UACC-257 melanoma
[54] = test system: UO-31 renal
[55] = test system: HCC-2998 colon
[56] = test system: NCI-H226 lung
[57] = test system: NCI-H460 lung
[58] = test system: SK-MEL-5 melanoma
[59] = test system: UACC-62 melanoma

Compound `Oc1c(CN2CCN(c3ccccc3)CC2)cc(Br)c2cccnc12` has a TGI [1] of 14.5 µM, a TGI [2] greater than 100 µM and a TGI [3] greater than 100 µM. For the same compound, the TGI [4] was greater than 34.4 µM, the TGI [5] was greater than 100 µM and the TGI [6] was greater than 100 µM. The TGI [7] was greater than 100 µM, the TGI [8] was greater than 100 µM and the TGI [9] was 13.8 µM. The TGI [10] was greater than 29.3 µM, the TGI [11] was greater than 28.4 µM and the TGI [12] was greater than 100 µM. The TGI [13] was 3.81 µM, the TGI [14] was 15.2 µM and the TGI [15] was 30.8 µM. For the same compound, the TGI [16] was greater than 88.6 µM, the TGI [17] was greater than 95.8 µM and the TGI [18] was greater than 100 µM. It also gave a TGI [19] greater than 40.8 µM, a TGI [20] greater than 100 µM and a TGI [21] of 17 µM. The TGI [22] was greater than 42 µM, the TGI [23] was 42.2 µM and the TGI [24] was greater than 100 µM. The TGI [25] was 15.7 µM, the TGI [26] was greater than 100 µM and the TGI [27] was greater than 100 µM. The TGI [28] was 6.15 µM, the TGI [29] was greater than 100 µM and the TGI [30] was 36.8 µM. The TGI [31] was greater than 100 µM, the TGI [32] was greater than 79.5 µM and the TGI [33] was greater than 100 µM. For the same compound, the TGI [34] was greater than 67.4 µM, the TGI [35] was greater than 100 µM and the TGI [36] was 32.5 µM. For the same compound, the TGI [37] was greater than 40.4 µM, the TGI [38] was 13.5 µM and the TGI [39] was greater than 71 µM. The TGI [40] was greater than 95 µM, the TGI [41] was greater than 28.6 µM and the TGI [42] was 42 µM. It also gave a TGI [43] greater than 100 µM, a TGI [44] of 26.8 µM and a TGI [45] greater than 37.6 µM. For the same compound, the TGI [46] was greater than 100 µM, the TGI [47] was 18.1 µM and the TGI [48] was 2.25 µM. It also gave a TGI [49] greater than 100 µM, a TGI [50] greater than 47.3 µM and a TGI [51] greater than 100 µM. The TGI [52] was 7.87 µM, the TGI [53] was greater than 100 µM and the TGI [54] was greater than 30.5 µM.

In the case of `COc1ccc(C(=O)/C=C/c2cc(O)c(O)cc2F)c(OC)c1`, the TGI [1] was 22.9 µM, the TGI [2] was 26.8 µM and the TGI [3] was greater than 75.4 µM. It also gave a TGI [4] greater than 63.3 µM, a TGI [5] of 24.4 µM and a TGI [6] greater than 100 µM. It also gave a TGI [7] of 15.2 µM, a TGI [8] of 29.8 µM and a TGI [9] of 27.3 µM. The TGI [10] was 49 µM, the TGI [55] was 7.42 µM and the TGI [11] was 20.4 µM. The TGI [12] was greater than 40.9 µM, the TGI [13] was 5.71 µM and the TGI [14] was 31.1 µM. For the same compound, the TGI [15] was greater than 100 µM, the TGI [16] was greater than 65.3 µM and the TGI [17] was 26 µM. The TGI [18] was greater than 88.2 µM, the TGI [19] was greater than 43.1 µM and the TGI [20] was greater than 79.9 µM. For the same compound, the TGI [21] was 26.9 µM, the TGI [22] was 23.9 µM and the TGI [23] was 24.6 µM. It also gave a TGI [24] of 13.9 µM, a TGI [25] of 64.3 µM and a TGI [26] greater than 100 µM. It also gave a TGI [27] of 53.4 µM, a TGI [28] of 45.1 µM and a TGI [56] of 55 µM. The TGI [29] was 26.6 µM, the TGI [57] was 17.7 µM and the TGI [30] was 3.19 µM. For the same compound, the TGI [31] was greater than 68.7 µM, the TGI [32] was 2.65 µM and the TGI [33] was greater than 100 µM. For the same compound, the TGI [34] was 33.5 µM, the TGI [35] was greater than 76.6 µM and the TGI [36] was 25.4 µM. The TGI [37] was 36.4 µM, the TGI [38] was 26.7 µM and the TGI [39] was 32.3 µM. For the same compound, the TGI [40] was 23.5 µM, the TGI [41] was 31 µM and the TGI [42] was 18.3 µM. The TGI [43] was 31.1 µM, the TGI [58] was 20.9 µM and the TGI [44] was 47.2 µM. It also gave a TGI [45] of 18 µM, a TGI [46] of 24.9 µM and a TGI [47] of 20.7 µM. The TGI [48] was 14.1 µM, the TGI [49] was greater than 55.3 µM and the TGI [50] was greater than 80.3 µM. For the same compound, the TGI [51] was 66.3 µM, the TGI [52] was 20.9 µM and the TGI [53] was 22.7 µM. It also gave a TGI [59] of 23.1 µM and a TGI [54] of 30.8 µM.

For `COc1cc(CS(=O)c2ccc(O)cc2)cc(OC)c1OC` (centres undefined), the TGI [1] was greater than 100 µM, the TGI [2] was greater than 100 µM and the TGI [3] was greater than 100 µM. For the same compound, the TGI [4] was greater than 100 µM, the TGI [5] was greater than 100 µM and the TGI [6] was greater than 100 µM. It also gave a TGI [7] greater than 100 µM, a TGI [8] greater than 100 µM and a TGI [9] greater than 100 µM. The TGI [10] was greater than 100 µM, the TGI [11] was greater than 100 µM and the TGI [12] was greater than 100 µM. For the same compound, the TGI [13] was greater than 100 µM, the TGI [14] was greater than 100 µM and the TGI [15] was greater than 100 µM. For the same compound, the TGI [16] was greater than 100 µM, the TGI [17] was greater than 100 µM and the TGI [18] was greater than 100 µM. The TGI [19] was greater than 100 µM, the TGI [20] was greater than 100 µM and the TGI [21] was greater than 100 µM. For the same compound, the TGI [22] was greater than 100 µM, the TGI [23] was greater than 100 µM and the TGI [24] was greater than 100 µM. The TGI [25] was greater than 100 µM, the TGI [26] was greater than 100 µM and the TGI [27] was greater than 100 µM. For the same compound, the TGI [28] was greater than 100 µM, the TGI [56] was greater than 100 µM and the TGI [29] was greater than 100 µM. For the same compound, the TGI [57] was greater than 100 µM, the TGI [30] was greater than 100 µM and the TGI [31] was greater than 100 µM. The TGI [32] was greater than 100 µM, the TGI [34] was greater than 100 µM and the TGI [35] was greater than 100 µM. The TGI [36] was greater than 100 µM, the TGI [37] was greater than 100 µM and the TGI [38] was greater than 100 µM. It also gave a TGI [39] greater than 100 µM, a TGI [40] greater than 100 µM and a TGI [41] greater than 100 µM. The TGI [42] was greater than 100 µM, the TGI [43] was greater than 100 µM and the TGI [58] was greater than 100 µM. For the same compound, the TGI [44] was greater than 100 µM, the TGI [45] was greater than 100 µM and the TGI [46] was greater than 100 µM. The TGI [47] was greater than 100 µM, the TGI [48] was greater than 100 µM and the TGI [49] was greater than 100 µM. The TGI [50] was greater than 100 µM, the TGI [51] was greater than 100 µM and the TGI [52] was greater than 100 µM. The TGI [53] was greater than 100 µM, the TGI [59] was greater than 100 µM and the TGI [54] was greater than 100 µM.

In the case of `CC1(C)CCc2c(c(N=Nc3ccc(F)cc3)c3ccccc3c2O)O1`, the TGI [1] was greater than 100 µM, the TGI [2] was 88.8 µM and the TGI [3] was 32.2 µM. The TGI [4] was greater than 100 µM, the TGI [5] was greater than 100 µM and the TGI [6] was greater than 100 µM. For the same compound, the TGI [7] was 41 µM, the TGI [8] was greater than 100 µM and the TGI [9] was 35.8 µM. The TGI [10] was 97 µM, the TGI [55] was 42.8 µM and the TGI [11] was greater than 100 µM. It also gave a TGI [12] greater than 100 µM, a TGI [13] of 65.1 µM and a TGI [14] of 57.3 µM. It also gave a TGI [15] greater than 100 µM, a TGI [16] greater than 100 µM and a TGI [17] of 44.1 µM. For the same compound, the TGI [18] was greater than 100 µM, the TGI [19] was greater than 100 µM and the TGI [20] was greater than 100 µM. The TGI [21] was 47.3 µM, the TGI [22] was 39.9 µM and the TGI [23] was 68.5 µM. For the same compound, the TGI [24] was greater than 100 µM, the TGI [25] was greater than 100 µM and the TGI [26] was 32 µM. It also gave a TGI [27] of 31.5 µM, a TGI [28] greater than 100 µM and a TGI [56] greater than 100 µM. It also gave a TGI [29] greater than 100 µM, a TGI [57] of 63.4 µM and a TGI [30] greater than 100 µM. The TGI [31] was greater than 100 µM, the TGI [32] was 70.8 µM and the TGI [33] was greater than 100 µM. For the same compound, the TGI [34] was greater than 100 µM, the TGI [35] was greater than 100 µM and the TGI [36] was greater than 100 µM. It also gave a TGI [37] greater than 100 µM, a TGI [38] greater than 100 µM and a TGI [39] greater than 100 µM. The TGI [40] was 49.8 µM, the TGI [41] was greater than 100 µM and the TGI [42] was 93 µM. It also gave a TGI [43] greater than 100 µM, a TGI [58] of 21.1 µM and a TGI [44] greater than 100 µM. It also gave a TGI [45] greater than 100 µM, a TGI [46] greater than 100 µM and a TGI [47] of 48.6 µM. The TGI [48] was 77.4 µM, the TGI [49] was greater than 100 µM and the TGI [50] was 86.8 µM. For the same compound, the TGI [51] was greater than 100 µM, the TGI [52] was greater than 100 µM and the TGI [53] was 41.1 µM. It also gave a TGI [59] of 31.3 µM and a TGI [54] greater than 100 µM.

— PubChem BioAssay (NCI)
